Measured values as given in patent US8124793B2, “Derivatives of ethylene methanedisulfonate as cancer chemotherapeutic agents” (priority 2007, dated 2012).

Legend:
NCI-H226 = assay: NCI screen, growth of human tumor cells: Non-Small Cell Lung NCI-H226; format: cell-based
Procedure: (§1) In the NCI screening process, each compound was tested and described by a minimum of 60 data points. The test data include, but are not limited to the type of cancer, the molar concentration used in the screen, and the percent growth of the cancer. In some cases, NMR and elemental analysis were used for structural assignment.

UACC-62 = assay: NCI screen, growth of human tumor cells: Melanoma UACC-62; format: cell-based; settings: UACC-62 (Melanoma), 10^−4 molar
In short: (§2)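 At least 60 data points describe each compound tested by NCI. Cancer type, molar concentration in the screen and percent growth make up the recorded data.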

human cancer cells = assay: NCI screen summary over the cancers tested (negative growth of human cancer cells); format: cell-based; settings: cancers with negative growth / cancers tested
Procedure: as §1
The derivatives in the tables are grouped using the same category as in the tables 1-6.

EKVX = assay: NCI screen, growth of human tumor cells: Non-Small Cell Lung EKVX; format: cell-based; settings: EKVX
Procedure: as §1

HOP-18 = assay: NCI screen, growth of human tumor cells: Non-Small Cell Lung HOP-18; format: cell-based
Procedure: as §1

HL-60 (TB) = assay: NCI screen, growth of human tumor cells: Leukemia HL-60 (TB); format: cell-based; settings: HL-60 (TB) (Leukemia), 10^−4 molar
Procedure: as §1

K562 = assay: NCI screen, growth of human tumor cells: Leukemia K562; format: cell-based; settings: K562 (Leukemia), 10^−4 molar
In short: as §2

RPMI-8226 = assay: NCI screen, growth of human tumor cells: Leukemia RPMI-8226; format: cell-based; settings: RPMI-8226 (Leukemia), 10^−4 molar
Procedure: as §1

SR = assay: NCI screen, growth of human tumor cells: Leukemia SR; format: cell-based; settings: SR (Leukemia), 10^−4 molar
In short: as §2

AS49/ATCC = assay: NCI screen, growth of human tumor cells: Non-Small Cell Lung AS49/ATCC; format: cell-based; settings: AS49/ATCC (Non-Small Cell Lung), 10^−4 molar
Procedure: as §1

HOP-62 = assay: NCI screen, growth of human tumor cells: Non-Small Cell Lung HOP-62; format: cell-based; settings: HOP-62 (Non-Small Cell Lung), 10^−4 molar
In short: as §2

NCI-H460 = assay: NCI screen, growth of human tumor cells: Non-Small Cell Lung NCI-H460; format: cell-based; settings: NCI-H460 (Non-Small Cell Lung), 10^−4 molar
In short: as §2

NCI-H23 = assay: NCI screen, growth of human tumor cells: Non-Small Cell Lung NCI-H23; format: cell-based; settings: NCI-H23, 10^−4 molar
Procedure: as §1

COLO205 = assay: NCI screen, growth of human tumor cells: Colon Cancer COLO205; format: cell-based; settings: COLO205 (Colon Cancer), 10^−4 molar
Procedure: as §1

HCT-116 = assay: NCI screen, growth of human tumor cells: Colon Cancer HCT-116; format: cell-based; settings: HCT-116 (Colon Cancer), 10^−4 molar
Procedure: as §1

HCT-15 = assay: NCI screen, growth of human tumor cells: Colon Cancer HCT-15; format: cell-based; settings: HCT-15 (Colon Cancer), 10^−4 molar
In short: as §2

KM12 = assay: NCI screen, growth of human tumor cells: Colon Cancer KM12; format: cell-based
Procedure: as §1

SF-268 = assay: NCI screen, growth of human tumor cells: CNS Cancer SF-268; format: cell-based; settings: SF-268 (CNS Cancer), 10^−4 molar
Procedure: as §1

SF-295 = assay: NCI screen, growth of human tumor cells: CNS Cancer SF-295; format: cell-based; settings: SF-295 (CNS Cancer), 10^−4 molar
Procedure: as §1

SF-539 = assay: NCI screen, growth of human tumor cells: CNS Cancer SF-539; format: cell-based; settings: SF-539, 10^−4 molar
In short: as §2

SNB-75 = assay: NCI screen, growth of human tumor cells: CNS Cancer SNB-75; format: cell-based; settings: SNB-75 (CNS Cancer), 10^−4 molar
Procedure: as §1

U-251 = assay: NCI screen, growth of human tumor cells: CNS Cancer U-251; format: cell-based; settings: U-251 (CNS Cancer), 10^−4 molar
Procedure: as §1

M14 = assay: NCI screen, growth of human tumor cells: Melanoma M14; format: cell-based; settings: M14 (Melanoma), 10^−4 molar
Procedure: as §1

SK-MEL-2 = assay: NCI screen, growth of human tumor cells: Melanoma SK-MEL-2; format: cell-based
Procedure: as §1

SK-MEL-28 = assay: NCI screen, growth of human tumor cells: Melanoma SK-MEL-28; format: cell-based; settings: SK-MEL-28 (Melanoma), 10^−4 molar
Procedure: as §1

SK-MEL-5 = assay: NCI screen, growth of human tumor cells: Melanoma SK-MEL-5; format: cell-based
In short: as §2

OVCAR-3 = assay: NCI screen, growth of human tumor cells: Ovarian Cancer OVCAR-3; format: cell-based; settings: OVCAR-3 (Ovarian Cancer), 10^−4 molar
In short: as §2

OVCAR-4 = assay: NCI screen, growth of human tumor cells: Ovarian Cancer OVCAR-4; format: cell-based; settings: OVCAR-4 (Ovarian Cancer), 10^−4 molar
Procedure: as §1

OVCAR-5 = assay: NCI screen, growth of human tumor cells: Ovarian Cancer OVCAR-5; format: cell-based
Procedure: as §1

ACHN = assay: NCI screen, growth of human tumor cells: Renal Cancer ACHN; format: cell-based; settings: ACHN, 10^−4 molar
In short: as §2

RXF-393 = assay: NCI screen, growth of human tumor cells: Renal Cancer RXF-393; format: cell-based; settings: RXF-393 (Renal Cancer), 10^−4 molar
Procedure: as §1

SN12C = assay: NCI screen, growth of human tumor cells: Renal Cancer SN12C; format: cell-based; settings: SN12C
Procedure: as §1

UO-31 = assay: NCI screen, growth of human tumor cells: Renal Cancer UO-31; format: cell-based; settings: UO-31 (Renal Cancer), 10^−4 molar
Procedure: as §1

DU-145 = assay: NCI screen, growth of human tumor cells: Prostate Cancer DU-145; format: cell-based
Procedure: as §1

MCF7/ADR-RES = assay: NCI screen, growth of human tumor cells: Breast Cancer MCF7/ADR-RES; format: cell-based; settings: MCF7/ADR-RES (Breast Cancer), 10^−4 molar
Procedure: as §1

BT-549 = assay: NCI screen, growth of human tumor cells: Breast Cancer BT-549; format: cell-based; settings: BT-549 (Breast Cancer), 10^−4 molar
Procedure: as §1

HS 578T = assay: NCI screen, growth of human tumor cells: Breast Cancer HS 578T; format: cell-based; settings: HS 578T (Breast Cancer), 10^−4 molar
Procedure: as §1

MDA-MB-435 = assay: NCI screen, growth of human tumor cells: Breast Cancer MDA-MB-435; format: cell-based; settings: MDA-MB-435, 10^−4 molar
Procedure: as §1

Compound: O=S1(=O)OCCOS(=O)(=O)C1I [NSC 648309, ethylene iodomethanedisulfonate]
- percent of growth of human tumor cells (NCI-H226; NCI-H226 (Non-Small Cell Lung), 10^−4 molar): 20%
- percent of growth of human tumor cells (UACC-62): 17%
- Percentage of cancers showing negative growth cancers tested (human cancer cells; 10^−4 M conc.): 10^−4 M conc. = 0/2 = 0%
- melting point: 144 to 160 °C

Compound: O=S1(=O)OCCOS(=O)(=O)C1(Br)Br [NSC 648304, ethylene dibromomethanedisulfonate]
- % Growth (EKVX; 10^−4 molar): 51%
- % Growth (EKVX; 10^−5 molar): 57%
- % Growth (EKVX; 10^−6 molar): 58%
- % Growth (EKVX; 10^−7 molar): 62%
- % Growth (EKVX; 10^−8 molar): 58%
- % Growth (HOP-18; HOP-18, 10^−4 molar): 53%
- % Growth (HOP-18; HOP-18, 10^−5 molar): 75%
- % Growth (HOP-18; HOP-18, 10^−6 molar): 52%
- % Growth (HOP-18; HOP-18, 10^−7 molar): 14%
- % Growth (HOP-18; HOP-18, 10^−8 molar): 42%
- % Growth (NCI-H226; NCI-H226, 10^−4 molar): −1%
- % Growth (NCI-H226; NCI-H226, 10^−5 molar): 49%
- % Growth (NCI-H226; NCI-H226, 10^−6 molar): 47%
- % Growth (NCI-H226; NCI-H226, 10^−7 molar): 54%
- % Growth (NCI-H226; NCI-H226, 10^−8 molar): 62%
- Percentage of cancers showing negative growth cancers tested (human cancer cells; 10^−4 M conc.): 10^−4 M conc. = 1/3 = 33%
- melting point: 214 to 220 °C

Compound: CC=CC(=O)C1(C2=C(Cl)C(=O)c3ccccc3C2=O)S(=O)(=O)OCCOS1(=O)=O [NSC 731264, ethylene crotonoyl-[3-chloro-1,4-naptho-2-quinolyl]-1,1-methanedisulfonate]
- percent of growth of human tumor cells (HL-60 (TB)): 17%
- percent of growth of human tumor cells (K562): 19%
- percent of growth of human tumor cells (RPMI-8226): −18%
- percent of growth of human tumor cells (SR): 7%
- percent of growth of human tumor cells (AS49/ATCC): −36%
- percent of growth of human tumor cells (HOP-62): −56%
- percent of growth of human tumor cells (NCI-H460): 10%
- % Growth (NCI-H23): −72%
- percent of growth of human tumor cells (COLO205): 30%
- percent of growth of human tumor cells (HCT-116): 26%
- percent of growth of human tumor cells (HCT-15): −59%
- % Growth (KM12; KM12, 10^−4 molar): −68%
- % Growth (KM12; KM12, 10^−5 molar): −75%
- % Growth (KM12; KM12, 10^−6 molar): 66%
- percent of growth of human tumor cells (SF-268): 7%
- percent of growth of human tumor cells (SF-295): −57%
- % Growth (SF-539): −73%
- percent of growth of human tumor cells (SNB-75): −33%
- percent of growth of human tumor cells (U-251): −5%
- percent of growth of human tumor cells (M14): −6%
- % Growth (SK-MEL-2; SK-MEL-2, 10^−4 molar): 27%
- % Growth (SK-MEL-2; SK-MEL-2, 10^−5 molar): 49%
- percent of growth of human tumor cells (SK-MEL-28): −59%
- % Growth (SK-MEL-5; SK-MEL-5, 10^−4 molar): −53%
- % Growth (SK-MEL-5; SK-MEL-5, 10^−5 molar): 28%
- percent of growth of human tumor cells (UACC-62): −16%
- percent of growth of human tumor cells (OVCAR-3): 5%
- percent of growth of human tumor cells (OVCAR-4): 19%
- % Growth (OVCAR-5; OVCAR-5, 10^−4 molar): −49%
- % Growth (OVCAR-5; OVCAR-5, 10^−5 molar): 51%
- % Growth (OVCAR-5; OVCAR-5, 10^−6 molar): 39%
- % Growth (OVCAR-5; OVCAR-5, 10^−7 molar): 46%
- % Growth (OVCAR-5; OVCAR-5, 10^−8 molar): 52%
- % Growth (ACHN): −82%
- percent of growth of human tumor cells (RXF-393): −50%
- % Growth (SN12C; 10^−4 molar): −67%
- % Growth (SN12C; 10^−5 molar): −99%
- % Growth (SN12C; 10^−6 molar): −4%
- percent of growth of human tumor cells (UO-31): 12%
- % Growth (DU-145; DV-145, 10^−4 molar): −68%
- % Growth (DU-145; DV-145, 10^−5 molar): −96%
- % Growth (DU-145; DV-145, 10^−6 molar): 38%
- percent of growth of human tumor cells (MCF7/ADR-RES): 20%
- percent of growth of human tumor cells (BT-549): −52%
- percent of growth of human tumor cells (HS 578T): −12%
- % Growth (MDA-MB-435): −73%
- Percentage of cancers showing negative growth cancers tested (human cancer cells; 10^−4 M conc.): 65%
- Percentage of cancers showing negative growth cancers tested (human cancer cells; 10^−5 M conc.): 50%
- Percentage of cancers showing negative growth cancers tested (human cancer cells; 10^−6 M conc.): 25%
